In test [1] the target is T1, Muscarinic acetylcholine receptor M1 (Homo sapiens, UniProt P11229).
T1 sequence (P11229 whole entry): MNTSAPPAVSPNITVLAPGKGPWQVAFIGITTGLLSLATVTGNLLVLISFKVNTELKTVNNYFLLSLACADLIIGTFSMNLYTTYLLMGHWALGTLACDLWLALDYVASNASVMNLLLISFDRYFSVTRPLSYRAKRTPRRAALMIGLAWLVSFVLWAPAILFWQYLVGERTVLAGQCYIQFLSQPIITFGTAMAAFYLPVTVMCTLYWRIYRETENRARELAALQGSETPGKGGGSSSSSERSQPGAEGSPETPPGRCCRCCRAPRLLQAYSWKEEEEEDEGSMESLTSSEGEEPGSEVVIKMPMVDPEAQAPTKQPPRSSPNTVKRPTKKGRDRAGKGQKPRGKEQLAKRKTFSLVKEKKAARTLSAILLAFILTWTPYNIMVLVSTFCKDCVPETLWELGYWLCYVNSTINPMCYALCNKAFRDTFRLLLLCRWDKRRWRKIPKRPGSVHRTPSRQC
Description: (§1) Binding of [3H]QNB to HM1 receptor was evaluated by saturation binding assay.

Test [2] concerns the target T2, Muscarinic acetylcholine receptor M2 (Homo sapiens, UniProt P08172).
T2 sequence (P08172 whole entry): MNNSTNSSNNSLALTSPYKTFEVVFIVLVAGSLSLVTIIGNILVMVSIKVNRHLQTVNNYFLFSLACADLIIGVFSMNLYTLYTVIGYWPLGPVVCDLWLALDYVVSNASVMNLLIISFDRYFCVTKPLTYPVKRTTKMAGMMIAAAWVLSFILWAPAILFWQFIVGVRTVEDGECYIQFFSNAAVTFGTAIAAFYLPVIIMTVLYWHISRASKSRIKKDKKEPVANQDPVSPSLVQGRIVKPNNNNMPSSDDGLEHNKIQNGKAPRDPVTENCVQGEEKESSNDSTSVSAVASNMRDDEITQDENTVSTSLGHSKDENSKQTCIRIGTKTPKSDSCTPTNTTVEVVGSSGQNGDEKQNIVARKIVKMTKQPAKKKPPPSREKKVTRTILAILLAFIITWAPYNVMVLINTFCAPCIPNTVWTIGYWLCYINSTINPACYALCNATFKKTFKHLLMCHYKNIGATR
Briefly: (§2) Binding of [3H]QNB to HM2 receptor was evaluated by saturation binding assay.

Test [3] deals with T3, Muscarinic acetylcholine receptor M2 (Homo sapiens) (UniProt P08172).
T3 sequence (whole entry): T2 sequence (P08172 whole entry)
Described as §2.

Test [4] addresses T4, Muscarinic acetylcholine receptor M1 (Homo sapiens) (UniProt P11229).
T4 sequence (whole entry): T1 sequence (P11229 whole entry)
The description is as §1.

Where a SMILES comes first, the peptide text is derived from it. The star is where a group is joined. Palmitoyl = CCCCCCCCCCCCCCCC(=O)*; Myristoyl = CCCCCCCCCCCCCC(=O)*; OBn = c1ccc(CO*)cc1

What is called Kd is the free concentration of one partner at which half of the binding sites on the other are occupied at equilibrium, for simple one-to-one binding. Low readings indicate a tighter complex, high ones a looser complex. On to `CCCCCCCCCCCCCCCC(=O)OC[C@H](NC(=O)CNC(=O)CCCCCCCCCCCCC)C(=O)OCc1ccccc1` (Myristoyl-Gly-Ser(Palmitoyl)-OBn), for which the Kd in test [1] was determined as 0.03 nM; in test [2], 1.78 nM. Besides, the Bmax in test [3] is 1.8 pmol/mg; in test [4] it was 1.2 pmol/mg.

For `CCCCCCCCCCCCCC(=O)NCC(=O)N[C@@H](CO)C(=O)OCc1ccccc1` (Myristoyl-Gly-Ser-OBn), the dissociation constant Kd in test [1] worked out at 0.04 nM; in test [2], 0.15 nM. Further, the Bmax in test [3] turned out to be 0.8 pmol/mg; in test [4], 1.7 pmol/mg.
